In ChEMBL document CHEMBL1201862, “PubChem BioAssay data set” (2004):
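How tested: cells in 96-well plates exposed to compound for 48 hours at five concentrations. GI50 is the concentration that inhibits growth by half.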 Active and inactive are the calls of the source. No stated cut-off is given here; in the data, active = GI50 up to about 1.1 µM and inactive = higher.

How the values were obtained:
Assay in all cases: NCI-60 cell line screen, 48 h
MOLT-4 = test system: MOLT-4
786-0 = test system: 786-0
NCI-H522 = test system: NCI-H522
CCRF-CEM = test system: CCRF-CEM
RPMI-8226 = test system: RPMI-8226
MDA-N = test system: MDA-N
COLO 205 = test system: COLO 205
IGROV-1 = test system: IGROV-1
HCT-15 = test system: HCT-15
UACC-257 = test system: UACC-257
SF-295 = test system: SF-295
SK-MEL-28 = test system: SK-MEL-28
SK-MEL-5 = test system: SK-MEL-5
HL-60 = test system: HL-60
SF-268 = test system: SF-268
MDA-MB-435 = test system: MDA-MB-435
PC-3 = test system: PC-3
SF-539 = test system: SF-539
NCI-H460 = test system: NCI-H460
DU-145 = test system: DU-145
HCT-116 = test system: HCT-116
OVCAR-4 = test system: OVCAR-4
CAKI-1 = test system: CAKI-1
RXF 393 = test system: RXF 393
BT-549 = test system: BT-549
M14 = test system: M14
NCI-H226 = test system: NCI-H226
UO-31 = test system: UO-31
OVCAR-5 = test system: OVCAR-5
OVCAR-3 = test system: OVCAR-3
Malme-3M = test system: Malme-3M
KM12 = test system: KM12
K562 = test system: K562
NCI/ADR-RES = test system: NCI/ADR-RES
SNB-19 = test system: SNB-19
TK-10 = test system: TK-10
A549 = test system: A549
MDA-MB-231 = test system: MDA-MB-231
HCC 2998 = test system: HCC 2998
A498 = test system: A498
MCF7 = test system: MCF7
OVCAR-8 = test system: OVCAR-8
SW-620 = test system: SW-620
U-251 = test system: U-251
ACHN = test system: ACHN
UACC-62 = test system: UACC-62
HOP-92 = test system: HOP-92
T47D = test system: T47D
NCI-H23 = test system: NCI-H23
SR = test system: SR
HT-29 = test system: HT-29
SK-MEL-2 = test system: SK-MEL-2
SNB-75 = test system: SNB-75
HOP-62 = test system: HOP-62
EKVX = test system: EKVX
SN12C = test system: SN12C
Hs-578T = test system: Hs-578T
LOX IMVI = test system: LOX IMVI
SK-OV-3 = test system: SK-OV-3

COC(=O)N1CC(=O)C(C(=O)NC23CC4CC(CC(C4)C2)C3)C1 (configuration not stated)
GI50 (MOLT-4): 35.8 µM (inactive) | GI50 (786-0): 33.3 µM (inactive) | GI50 (NCI-H522): 49.3 µM (inactive) | GI50 (CCRF-CEM): 42.5 µM (inactive) | GI50 (RPMI-8226): 32.8 µM (inactive) | GI50 (MDA-N): > 100 µM (inactive) | GI50 (COLO 205): 62.1 µM (inactive) | GI50 (IGROV-1): > 100 µM (inactive) | GI50 (HCT-15): 39.2 µM | GI50 (UACC-257): > 100 µM (inactive) | GI50 (SF-295): 56.6 µM (inactive) | GI50 (SK-MEL-28): 66.4 µM (inactive) | GI50 (SK-MEL-5): 45.6 µM (inactive) | GI50 (HL-60): 32.1 µM (inactive) | GI50 (SF-268): 37.7 µM (inactive) | GI50 (MDA-MB-435): > 100 µM (inactive) | GI50 (PC-3): 52 µM (inactive) | GI50 (SF-539): 72.9 µM (inactive) | GI50 (NCI-H460): 78.7 µM (inactive) | GI50 (DU-145): 76.4 µM (inactive) | GI50 (HCT-116): 64.6 µM (inactive) | GI50 (OVCAR-4): > 100 µM (inactive) | GI50 (CAKI-1): > 100 µM (inactive) | GI50 (RXF 393): 82 µM (inactive) | GI50 (BT-549): 66.7 µM (inactive) | GI50 (M14): > 100 µM (inactive) | GI50 (NCI-H226): > 100 µM (inactive) | GI50 (UO-31): > 100 µM (inactive) | GI50 (OVCAR-5): > 100 µM (inactive) | GI50 (OVCAR-3): > 100 µM (inactive) | GI50 (Malme-3M): 78.7 µM (inactive) | GI50 (KM12): 41.8 µM (inactive) | GI50 (K562): 55.2 µM (inactive) | GI50 (NCI/ADR-RES): 84.1 µM (inactive) | GI50 (SNB-19): > 100 µM (inactive) | GI50 (TK-10): > 100 µM (inactive) | GI50 (A549): > 100 µM (inactive) | GI50 (MDA-MB-231): 42.7 µM (inactive) | GI50 (HCC 2998): 37 µM (inactive) | GI50 (A498): > 100 µM (inactive) | GI50 (MCF7): 45.3 µM (inactive) | GI50 (OVCAR-8): 73.1 µM (inactive) | GI50 (SW-620): > 100 µM (inactive) | GI50 (U-251): 67.3 µM (inactive) | GI50 (ACHN): 74.3 µM (inactive) | GI50 (UACC-62): 69.7 µM (inactive) | GI50 (HOP-92): > 100 µM (inactive) | GI50 (T47D): 47.8 µM (inactive) | GI50 (NCI-H23): > 100 µM (inactive) | GI50 (SR): 48.3 µM (inactive) | GI50 (HT-29): 78.9 µM (inactive) | GI50 (SK-MEL-2): 77.3 µM (inactive)

Clc1cc2nc(C3CCCO3)[nH]c2cc1Cl (configuration not stated)
GI50 (SNB-75): 30.1 µM (inactive) | GI50 (MOLT-4): 52 µM (inactive) | GI50 (786-0): > 100 µM (inactive) | GI50 (NCI-H522): 20.4 µM (inactive) | GI50 (CCRF-CEM): 68.4 µM (inactive) | GI50 (RPMI-8226): 72.8 µM (inactive) | GI50 (MDA-N): 20.1 µM (inactive) | GI50 (COLO 205): 37.1 µM (inactive) | GI50 (IGROV-1): 61.9 µM (inactive) | GI50 (HOP-62): > 100 µM (inactive) | GI50 (HCT-15): 31.6 µM | GI50 (UACC-257): > 100 µM (inactive) | GI50 (SF-295): 57.1 µM (inactive) | GI50 (SK-MEL-28): 78 µM (inactive) | GI50 (SK-MEL-5): 35.9 µM (inactive) | GI50 (HL-60): 37.7 µM (inactive) | GI50 (SF-268): 67 µM (inactive) | GI50 (MDA-MB-435): 28.2 µM (inactive) | GI50 (PC-3): 42.7 µM (inactive) | GI50 (SF-539): > 100 µM (inactive) | GI50 (EKVX): 87.5 µM (inactive) | GI50 (HCT-116): 39.2 µM (inactive) | GI50 (OVCAR-4): 46.8 µM (inactive) | GI50 (RXF 393): 66.5 µM (inactive) | GI50 (BT-549): 26.2 µM (inactive) | GI50 (M14): 72.9 µM (inactive) | GI50 (NCI-H226): > 100 µM (inactive) | GI50 (UO-31): 16.9 µM (inactive) | GI50 (OVCAR-5): > 100 µM (inactive) | GI50 (OVCAR-3): 32.5 µM (inactive) | GI50 (Malme-3M): > 100 µM (inactive) | GI50 (KM12): 32.7 µM (inactive) | GI50 (K562): 38.5 µM (inactive) | GI50 (NCI/ADR-RES): 43.5 µM (inactive) | GI50 (SNB-19): > 100 µM (inactive) | GI50 (TK-10): > 100 µM (inactive) | GI50 (SN12C): > 100 µM (inactive) | GI50 (A549): 54.6 µM (inactive) | GI50 (MDA-MB-231): > 100 µM (inactive) | GI50 (HCC 2998): 76.4 µM (inactive) | GI50 (MCF7): 29.2 µM (inactive) | GI50 (Hs-578T): 40.9 µM (inactive) | GI50 (OVCAR-8): 57.9 µM (inactive) | GI50 (SW-620): 45.8 µM (inactive) | GI50 (U-251): > 100 µM (inactive) | GI50 (ACHN): > 100 µM (inactive) | GI50 (UACC-62): 45.8 µM (inactive) | GI50 (HOP-92): 85.3 µM (inactive) | GI50 (T47D): 46.2 µM (inactive) | GI50 (NCI-H23): 34.4 µM (inactive) | GI50 (LOX IMVI): 35.4 µM (inactive) | GI50 (SR): 37.6 µM (inactive) | GI50 (HT-29): 33.7 µM (inactive) | GI50 (SK-OV-3): 69.2 µM (inactive) | GI50 (SK-MEL-2): > 100 µM (inactive)
